# Key:
# [1] = biological target: Homeodomain-interacting protein kinase 1 (Homo sapiens, UniProt Q86Z02); test: Selectivity interaction (KinomeScan (DiscoverX)) EUB0000666a HIPK1; conditions: at 10 µM
# [2] = biological target: T1, Dual specificity tyrosine-phosphorylation-regulated kinase 2 (Homo sapiens) (UniProt Q92630); test: Selectivity interaction (ProQinase) EUB0000171b DYRK2
# T1 sequence (whole entry): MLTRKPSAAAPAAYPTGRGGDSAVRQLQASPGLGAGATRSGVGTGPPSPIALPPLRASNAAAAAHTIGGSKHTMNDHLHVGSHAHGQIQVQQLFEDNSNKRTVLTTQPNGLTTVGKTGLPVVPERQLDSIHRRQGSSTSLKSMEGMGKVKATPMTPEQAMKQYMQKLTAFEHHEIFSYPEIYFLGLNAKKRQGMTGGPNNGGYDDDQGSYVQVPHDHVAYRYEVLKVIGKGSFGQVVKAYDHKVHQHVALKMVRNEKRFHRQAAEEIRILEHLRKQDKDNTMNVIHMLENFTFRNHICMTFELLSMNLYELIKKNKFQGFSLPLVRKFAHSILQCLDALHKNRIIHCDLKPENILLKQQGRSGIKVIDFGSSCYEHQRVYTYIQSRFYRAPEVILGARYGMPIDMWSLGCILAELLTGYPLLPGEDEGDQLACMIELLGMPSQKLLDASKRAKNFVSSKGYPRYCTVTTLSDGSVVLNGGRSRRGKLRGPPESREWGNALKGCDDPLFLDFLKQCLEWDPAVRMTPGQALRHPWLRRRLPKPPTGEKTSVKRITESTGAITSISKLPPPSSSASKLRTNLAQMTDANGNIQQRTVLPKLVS
# [3] = biological target: T2, Serine/threonine-protein kinase LATS1 (Homo sapiens) (UniProt O95835); test: Selectivity interaction (Ambit KINOMEscan and KiNATiv profiling in Jurkat cells) EUB0000090b LATS1; type: cell-based; conditions: at 1 µM
# T2 sequence (whole entry): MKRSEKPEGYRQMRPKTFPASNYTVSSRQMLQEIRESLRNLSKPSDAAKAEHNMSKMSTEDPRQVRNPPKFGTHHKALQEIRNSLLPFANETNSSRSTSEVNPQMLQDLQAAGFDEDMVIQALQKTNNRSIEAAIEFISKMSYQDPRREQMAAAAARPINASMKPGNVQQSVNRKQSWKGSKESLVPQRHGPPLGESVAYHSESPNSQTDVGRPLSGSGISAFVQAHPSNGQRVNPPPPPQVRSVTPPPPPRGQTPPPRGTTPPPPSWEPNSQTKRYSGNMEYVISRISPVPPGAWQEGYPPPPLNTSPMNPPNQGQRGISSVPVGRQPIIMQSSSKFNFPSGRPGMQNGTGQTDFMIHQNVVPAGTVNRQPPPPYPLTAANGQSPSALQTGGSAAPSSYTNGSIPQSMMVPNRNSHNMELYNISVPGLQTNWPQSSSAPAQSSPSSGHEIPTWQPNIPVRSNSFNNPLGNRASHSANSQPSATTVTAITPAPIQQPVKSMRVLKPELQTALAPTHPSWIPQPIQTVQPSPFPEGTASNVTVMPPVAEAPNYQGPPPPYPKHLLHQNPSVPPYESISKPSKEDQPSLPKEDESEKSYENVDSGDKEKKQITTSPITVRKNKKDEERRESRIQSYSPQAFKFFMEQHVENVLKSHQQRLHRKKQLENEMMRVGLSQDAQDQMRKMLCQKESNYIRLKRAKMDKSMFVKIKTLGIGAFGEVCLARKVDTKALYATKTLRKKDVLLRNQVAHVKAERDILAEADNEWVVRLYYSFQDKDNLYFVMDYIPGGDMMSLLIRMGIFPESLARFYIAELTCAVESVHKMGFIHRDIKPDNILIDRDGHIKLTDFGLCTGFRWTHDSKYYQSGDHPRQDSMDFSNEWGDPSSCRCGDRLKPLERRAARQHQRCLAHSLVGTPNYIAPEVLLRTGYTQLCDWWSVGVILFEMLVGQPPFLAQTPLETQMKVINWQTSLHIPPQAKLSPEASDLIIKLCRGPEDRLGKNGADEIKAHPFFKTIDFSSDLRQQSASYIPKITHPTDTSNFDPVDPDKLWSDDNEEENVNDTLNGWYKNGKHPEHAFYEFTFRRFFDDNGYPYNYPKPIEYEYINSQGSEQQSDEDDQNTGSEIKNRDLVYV
# Chain of Homeodomain-interacting protein kinase 1 (Q86Z02 whole entry, looked up): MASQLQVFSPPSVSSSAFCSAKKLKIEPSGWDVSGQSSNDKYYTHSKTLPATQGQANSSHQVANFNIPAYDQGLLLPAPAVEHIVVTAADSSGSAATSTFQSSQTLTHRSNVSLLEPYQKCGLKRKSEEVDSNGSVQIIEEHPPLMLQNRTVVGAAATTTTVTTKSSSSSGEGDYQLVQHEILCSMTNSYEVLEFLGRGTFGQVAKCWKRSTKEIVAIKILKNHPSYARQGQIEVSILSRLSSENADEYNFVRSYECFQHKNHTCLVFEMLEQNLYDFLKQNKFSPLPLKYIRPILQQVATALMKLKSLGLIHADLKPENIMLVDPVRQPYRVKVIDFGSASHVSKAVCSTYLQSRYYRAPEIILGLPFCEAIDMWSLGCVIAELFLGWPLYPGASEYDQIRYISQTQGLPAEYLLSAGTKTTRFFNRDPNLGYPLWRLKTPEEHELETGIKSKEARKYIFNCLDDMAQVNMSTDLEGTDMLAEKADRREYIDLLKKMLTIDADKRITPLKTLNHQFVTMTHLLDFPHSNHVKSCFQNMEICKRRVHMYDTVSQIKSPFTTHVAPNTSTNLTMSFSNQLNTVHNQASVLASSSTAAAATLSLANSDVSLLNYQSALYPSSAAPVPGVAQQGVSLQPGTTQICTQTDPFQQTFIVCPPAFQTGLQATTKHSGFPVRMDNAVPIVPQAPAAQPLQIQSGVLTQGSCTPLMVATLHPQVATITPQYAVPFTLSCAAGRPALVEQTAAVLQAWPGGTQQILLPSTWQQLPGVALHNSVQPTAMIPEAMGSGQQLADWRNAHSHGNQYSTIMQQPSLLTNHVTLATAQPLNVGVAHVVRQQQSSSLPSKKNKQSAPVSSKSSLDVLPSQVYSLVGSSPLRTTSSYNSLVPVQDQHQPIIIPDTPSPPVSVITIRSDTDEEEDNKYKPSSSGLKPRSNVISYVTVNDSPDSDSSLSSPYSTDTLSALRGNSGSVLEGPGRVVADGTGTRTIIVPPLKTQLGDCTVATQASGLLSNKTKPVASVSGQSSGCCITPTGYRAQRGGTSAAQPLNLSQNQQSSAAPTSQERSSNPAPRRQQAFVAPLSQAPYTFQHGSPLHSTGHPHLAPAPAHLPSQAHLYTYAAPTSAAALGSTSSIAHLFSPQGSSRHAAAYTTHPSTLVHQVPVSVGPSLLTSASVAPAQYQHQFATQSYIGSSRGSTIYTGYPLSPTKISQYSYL
compound,measurement,setting,value
O=C(NOC[C@H](O)CO)c1ccc(F)c(F)c1Nc1ccc(I)cc1F,% of control,[1],91%
C=CC(=O)Nc1cccc(C(=O)Nc2ccc(Nc3cc(-c4[nH]c(SC)nc4C)ccn3)cc2)c1,% of control,[2]; at 1 µM,72%
same,% of control,[2]; at 5 µM,30%
CN(C)C/C=C/C(=O)Nc1ccc(C(=O)N2CCCC(Nc3ncc(Cl)c(-c4c[nH]c5ccccc45)n3)C2)cc1 (centres undefined),% of control,[3],84%

# From ChEMBL document CHEMBL5465560, “Selectivity Literature for EUbOPEN Chemogenomic Library” (2024)
